From patent US12583851B2, “Heteroaryl-substituted pyrazine derivatives as pesticides” (Elanco Animal Health GmbH, priority 2019, dated 2026)

Legend:
Type in all cases: in vivo
[1] = system: adult mosquitoes Anopheles funestus strain FUMOZ-R; assay: Anopheles funestus test (ANPHFU surface treatment & contact assay); details: 24 hours after contact, read-out: mortality (efficacy); for mortality at 20 mg/m2: surface concentration 20 mg/m^2, 30 minutes exposure
Method: Anopheles funestus Test (ANPHFU Surface Treatment & Contact Assay)
(§1) Solvent: Aceton+2000 ppm rapeseed oil methyl ester (RME)
(§2) In order to produce a sufficient, active ingredient containing solution it is necessary to solve the test compound in the solvent-mix (acetone at 2 mg/ml/RME 2000 ppm). This solution is pipetted onto a glazed tile and after evaporation of the acetone, adult mosquitoes of the species Anopheles funestus strain FUMOZ-R (Hunt et al., Med. Vet. Entomol. 2005 Sep. 19(3): 271-275) are placed onto the dried surface. The exposure time is 30 minutes.
(§3) Mortality in percent (%) is determined 24 hours after contact of the insects to the treated surface. 100% mortality means that all tested insects are dead, whereas 0% means that no insect died.

[2] = system: adult mosquitoes Aedes aegypti strain MONHEIM; assay: Aedes aegypti test (AEDSAE surface treatment & contact assay); details: 24 hours after contact, read-out: mortality (efficacy); for mortality at 20 mg/m2: surface concentration 20 mg/m^2, 30 minutes exposure
Method: Aedes aegypti Test (AEDSAE Surface Treatment & Contact Assay)
as §1
as §2, with “Aedes aegypti” for “Anopheles funestus”, “MONHEIM” for “FUMOZ-R (Hunt et al., Med. Vet. Entomol. 2005 Sep. 19(3): 271-275)”
as §3

[3] = system: larvae of the southern green stink bug (Nezara viridula); assay: Nezara viridula spray test; details: 96 h, 100 g/ha, barley plants, after 4 days
Method: Nezara viridula—Spray Test
(§4) Solvent: 78.0 parts by weight of acetone • • 1.5 parts by weight of dimethylformamide
(§5) Emulsifier: alkylarylpolyglycol ether
(§6) To produce a suitable preparation of active compound, 1 part by weight of active compound is mixed with the stated amount of solvent, and the concentrate is diluted with water, containing an emulsifier concentration of 1000 ppm, to the desired concentration. Further test concentrations are prepared by dilution with emulsifier containing water.
Barley plants (Hordeum vulgare) infested with larvae of the southern green stink bug (Nezara viridula) are sprayed with a test solution containing the desired concentration of the active ingredient.
After 4 days mortality in % is determined. 100% means all the stink bugs have been killed; 0% means none of the stink bugs have been killed.

[4] = system: Rhipicephalus (Boophilus) microplus larvae (strain Parkhurst, resistant against synthetic pyrethroids); assay: Rhipicephalus (Boophilus) microplus in-vitro contact test, larval cattle tick; details: after 48 hours, read-out: efficacy (larvae dead or moribund); for pest or weed control at 1 µg/cm2, 100 g/ha: 1 μg/cm^2 (=100 g/ha); for pest or weed control at 5 µg/cm2, 500 g/ha: 5 μg/cm^2 (=500 g/ha)
Procedure, shortened: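 Acetone solutions were coated onto glass tube walls (900 ppm gives 5 μg/cm²); after drying, 20–50 pyrethroid-resistant Parkhurst larvae added and held at 27 °C, 85% RH. At 48 h, efficacy as % larvae dead or moribund, judged by loss of negative geotaxis.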

[5] = system: adult unfed cat fleas (Ctenocephalides felis); assay: Ctenocephalides felis oral test; details: 48 h, 100 ppm in citrated cattle blood, after 2 days
Method: Ctenocephalides felis—Oral Test
(§7) Solvent: dimethyl sulfoxide
To produce a suitable preparation of active compound, 10 mg of active compound are dissolved in 0.5 mL solvent, and the concentrate is diluted with citrated cattle blood to the desired concentration.
Approximately 20 adult unfed cat fleas (Ctenocephalides felis) are placed in a flea chamber whose top and bottom is covered with gauze. A chamber whose bottom is sealed with parafilm, is filled with the blood-compound solution and placed on top of the flea chamber, so that the fleas can suck the blood. The blood chamber is heated to 37° C. whereas the flea chamber is kept at room temperature.
After 2 days mortality in % is determined. 100% means all the fleas have been killed; 0% means none of the fleas have been killed.

[6] = system: adult brown dog ticks (Rhipicephalus sanguineus); assay: Rhipicephalus sanguineus in-vitro contact test, adult brown dog ticks; details: 48 h, 5 μg/cm^2 (=500 g/ha), after 48 hours, read-out: efficacy (ticks dead or moribund)
Procedure, shortened: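 Acetone solution coated on glass tube inner walls (900 ppm, giving 5 μg/cm^2); after drying, 5–10 adult ticks added and kept 48 h at room temperature. Efficacy scored as percent dead or moribund, i.e., ticks unable to climb away on a 45–50 °C heating plate within 5 min.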

[7] = system: adult engorged female ticks (Rhipicephalus microplus); assay: Rhipicephalus (Boophilus) microplus injection test; details: 168 h, 4 μg/animal, egg deposition after 7 days, read-out: efficacy (infertile eggs)
Method: Rhipicephalus (Boophilus) microplus—Injection Test
as §7
To produce a suitable preparation of active compound, 10 mg of active compound are dissolved in 0.5 mL solvent, and the concentrate is diluted with solvent to the desired concentration.
Five adult engorged female ticks (Rhipicephalus microplus) are injected with 1 μL compound solution into the abdomen. The ticks are transferred into replica plates and incubated in a climate chamber.
After 7 days egg deposition of fertile eggs is monitored. Eggs where fertility is not visible are stored in a climate chamber till hatching after about 42 days. An efficacy of 100% means all eggs are infertile; 0% means all eggs are fertile.

[8] = system: green peach aphid (Myzus persicae); assay: Myzus persicae oral test; details: 120 h, 4 ppm, after 5 days
Method: Solvent: 100 parts by weight acetone
(§8) To produce a suitable preparation of active compound, 1 part by weight of active compound is mixed with the stated amount of solvent, and the concentrate is diluted with water to the desired concentration.
50 μL compound solution is filled in microtiter plates and 150 μL IPL41 insect medium (33%+15% sugar) is added to obtain a total volume of 200 μL per well. Afterwards the plates are sealed with parafilm through which a mixed population of the green peach aphid (Myzus persicae) can suck on the compound preparation.
(§9) After 5 days mortality in % is determined. 100% means all aphids have been killed and 0% means none of the aphids have been killed.

[9] = system: larvae of the banded cucumber beetle (Diabrotica balteata); assay: Diabrotica balteata spray test; details: 168 h, after 7 days, read-out: efficacy (seedling growth); for pest or weed control at 6.4 µg/disc, 20 g/ha: 20 g/ha (=6.4 μg/well); for pest or weed control at 32 µg/disc, 100 g/ha: 100 g/ha (=32 μg/well)
Procedure, shortened: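 Germinated wheat seedlings (5 per well, on agar) sprayed with compound in acetone/DMF with emulsifier-containing water, then infested with 10–20 Diabrotica balteata larvae. Efficacy (%) scored after 7 days from seedling growth: 100% = growth as untreated uninfested control, 0% = no seedlings grown.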

[10] = system: fall armyworm larvae (Spodoptera frugiperda); assay: Spodoptera frugiperda spray test; details: 168 h, maize leaf sections, after 7 days
Procedure, shortened: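 Compound dissolved in acetone/dimethylformamide, diluted in water containing 1000 ppm alkylarylpolyglycol ether emulsifier and sprayed onto maize leaf sections. Dried sections were infested with larvae; % mortality scored after 7 days (100% = all caterpillars killed, 0% = none).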

[11] = system: southern root-knot nematode (Meloidogyne incognita); assay: Meloidogyne incognita test; details: 20 ppm, after 14 days
Method: Meloidogyne incognita—Test
Solvent: 125.0 parts by weight of acetone
as §8
Vessels are filled with sand, a solution of the active ingredient, a suspension containing eggs and larvae of the southern root-knot nematode (Meloidogyne incognita) and salad seeds. The salad seeds germinate and the seedlings grow. Galls develop in the roots.
After 14 days the nematicidal activity is determined based on the percentage of gall formation. 100% means no galls were found and 0% means the number of galls found on the roots of the treated plants was equal to that in untreated control plants.

[12] = system: adult cat fleas (Ctenocephalides felis); assay: Ctenocephalides felis in-vitro contact test, adult cat flea; details: after 48 hours, read-out: efficacy (fleas dead or moribund); for pest or weed control at 1 µg/cm2, 100 g/ha: 1 μg/cm^2 (=100 g/ha); for pest or weed control at 5 µg/cm2, 500 g/ha: 5 μg/cm^2 (=500 g/ha)
Procedure, shortened: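 Acetone solution coated onto glass tube walls; 900 ppm gives 5 μg/cm². Once dry, 5–10 adult fleas per tube held at room temperature for 48 h. Efficacy (%) is the share of fleas dead or moribund, i.e. unable to climb away on a 45–50° C heating plate.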

[13] = system: adult flies Musca domestica strain WHO-N; assay: Musca domestica test (MUSCDO surface treatment & contact assay); details: surface concentration 20 mg/m^2, 30 minutes exposure, 24 hours after contact, read-out: mortality (efficacy)
Method: Musca domestica Test (MUSCDO Surface Treatment & Contact Assay)
as §1
as §2, with “flies” for “mosquitoes”, “Musca domestica” for “Anopheles funestus”, “WHO-N” for “FUMOZ-R (Hunt et al., Med. Vet. Entomol. 2005 Sep. 19(3): 271-275)”
as §3

[14] = system: brown planthopper (Nilaparvata lugens); assay: Nilaparvata lugens spray test; details: 96 h, 500 g/ha, rice plants, after 4 days
Method: Nilaparvata lugens—Spray Test
as §4, §5
as §6, with “solvents” for “solvent,”, “and” for “and the concentrate”
Rice plants (Oryza sativa) are sprayed with a preparation of the active ingredient of the desired concentration and the plants are infested with the brown planthopper (Nilaparvata lugens).
After 4 days mortality in % is determined. 100% means all planthoppers have been killed and 0% means none of the planthoppers have been killed.

[15] = system: green peach aphid (Myzus persicae); assay: Myzus persicae spray test; details: foliar, 120 h, Chinese cabbage leaf disks, after 5 days
Method: Myzus persicae—Spray Test
Solvent: 78.0 parts by weight acetone • 1.5 parts by weight dimethylformamide
as §5
as §6, with “solvents” for “solvent,”, “and” for “and the concentrate”
Chinese cabbage (Brassica pekinensis) leaf disks infected with all instars of the green peach aphid (Myzus persicae), are sprayed with a preparation of the active ingredient of the desired concentration.
as §9

[16] = surface concentration 4 mg/m^2, 30 minutes exposure

Compound	mortality at 4 mg/m2 [1, 16] [%]	mortality at 20 mg/m2 [1] [%]	mortality at 4 mg/m2 [2, 16] [%]	mortality at 20 mg/m2 [2] [%]	mortality at 100 g/ha [3] [%]	pest or weed control at 1 µg/cm2, 100 g/ha [4] [%]	pest or weed control at 5 µg/cm2, 500 g/ha [4] [%]	mortality at 100 ppm [5] [%]	pest or weed control at 5 µg/cm2, 500 g/ha [6] [%]	pest or weed control at 0.004 mg [7] [%]	mortality at 4 ppm [8] [%]	pest or weed control at 6.4 µg/disc, 20 g/ha [9] [%]	pest or weed control at 32 µg/disc, 100 g/ha [9] [%]	mortality at 100 g/ha [10] [%]	nematicidal activity (based on gall formation) [11] [%]	pest or weed control at 1 µg/cm2, 100 g/ha [12] [%]	pest or weed control at 5 µg/cm2, 500 g/ha [12] [%]	mortality at 20 mg/m2 [13] [%]	mortality at 500 g/ha [14] [%]	mortality at 100 g/ha [15] [%]
CC(NC(=O)c1cncc(C(F)(F)F)c1)c1nccnc1-c1ncccn1 (racemic) [Example I-9, (rac)-N-(1-(3-(Pyrimidin-2-yl)pyrazin-2-yl)ethyl)-5-(trifluoromethyl)nicotinamide]	80 to 100	80 to 100	80 to 100	80 to 100	90	100	100	80	80	100										
CC(NC(=O)c1cc(C(F)(F)F)cc(C(F)(F)F)c1)c1nccnc1-c1ccc(Cl)cn1 (centres unmarked) [Example I-20]						100	100			80	90	80	100	100						
CC(NC(=O)c1cc(Br)cc(OC(F)(F)F)c1)c1nccnc1-c1ccccn1 (centres unmarked) [Example I-17]						80	90	100		100		100	100	83	90					
CC(NC(=O)c1cc(C(F)(F)F)cc(C(F)(F)F)c1)c1nccnc1-c1ccc(C(=O)N2CCOCC2)cn1 (racemic) [Example I-34, (rac)-N-[1-{3-[5-(morpholine-4-carbonyl)pyridin-2-yl]pyrazin-2-yl}ethyl]-3,5-bis(trifluoromethyl)benzamide]						100	100		80		100		80			80	90			
CC(NC(=O)c1cc(Br)cc(C#N)c1)c1nccnc1-c1nccs1 (racemic) [Example I-55, (rac)-3-Bromo-5-cyano-N-{1-[3-(1,3-thiazol-2-yl)pyrazin-2-yl]ethyl}benzamide]								100							100					
CC(NC(=O)c1cc(C(F)(F)F)cc(C(F)(F)F)c1)c1nccnc1-c1ncc(C(=O)N(CC2CC2)C(C)C)s1 (racemic) [Example I-63, (rac)-2-(3-{1-[3,5-Bis(trifluoromethyl)benzamido]ethyl}pyrazin-2-yl)-N-(cyclopropylmethyl)-N-(propan-2-yl)-1,3-thiazole-5-carboxamide]										100		100	100	100	90					
CCN(C)C(=O)c1cnc(-c2nccnc2[C@H](C)NC(=O)c2cc(C(F)(F)F)cc(C(F)(F)F)c2)s1 [Example I-85, 2-(3-{(1S)-1-[3,5-bis(trifluoromethyl)benzamido]ethyl}pyrazin-2-yl)-N-ethyl-N-methyl-1,3-thiazole-5-carboxamide]		80 to 100		80 to 100		100	100		100			100	100	100		100	100	80 to 100	100	90
CC(NC(=O)c1cc(Cl)cc(Br)c1)c1nccnc1-c1nccs1 (racemic) [Example I-54, (rac)-3-Bromo-5-chloro-N-{1-[3-(1,3-thiazol-2-yl)pyrazin-2-yl]ethyl}benzamide]							90		80				100		90					
